# System: adults with plaque psoriasis
# Assay: Long-term open-label extension study (PSOARING 3): Physician Global Assessment (PGA), treatment episodes, treatment success, remittive effect
# Type: in vivo, human
# Description: This extension study consisted of up to 40 weeks of treatment and a 4 week, safety follow up period.
# At the completion of the Week 12 visit of the DB, pivotal Phase 3 study, eligibility of the subjects opting to enroll in this extension study was confirmed. Study visits during the treatment period for all subjects occurred every 4 weeks (±3 days). A phone call was performed at Week 2 (Day 15). Unscheduled visits may have occurred, as needed. Subjects who withdrew from this study before Week 40 returned to the study center for an Early Termination visit. The total duration of this extension study participation was 44 weeks. Subjects in this study were treated as follows based on their PGA score from the Week 12 visit in the DB, pivotal Phase 3 study (Study DMVT 505 3001 or Study DMVT 505 3002).
# The PGA was used to assess the primary efficacy endpoint in this study. The PGA is a clinical tool for assessing the current state/severity of a subject's psoriasis at a given time point. It is a static, 5 point, morphological assessment of overall disease severity, as determined by the Investigator, using the clinical characteristics of erythema, scaling, and plaque thickness/elevation as guidelines; higher PGA scores represent more severe disease (0=clear, 1=almost clear, 2=mild, 3=moderate, and 4=severe). The BSA affected was not considered in scoring of the PGA. Variations of the PGA are frequently used in clinical studies because it is a simple assessment, similar to those used in clinical practice. The PGA was performed first, prior to the % BSA, PASI, and LTS assessments.
# Time to event parameters, such as the time from treatment success to subsequent worsening (PGA≥2) or duration of treatment episode, were summarized by the Kaplan Meier product limit method using OC.
# [1] = Week 16, LOCF, Vehicle (Pivotal) group
# [2] = Week 16, OC, Vehicle (Pivotal) group
# [3] = Week 16 LOCF, Tapinarof (Pivotal)
# [4] = Week 16 LOCF, Vehicle (Pivotal)
# [5] = Week 16 OC, Tapinarof (Pivotal)
smiles,measurement,setting,value
"CC(C)c1c(O)cc(/C=C/c2ccccc2)cc1O [Tapinarof, 3,5-Dihydroxy-4-isopropyl-trans-stilbene]","Total Duration of Treatment Success, Median","ITT, Vehicle (Pivotal) group",97.0 days
same,tachyphylaxis (decline of clinical effects over time on treatment),"PGA, % BSA, PASI over time",not observed
same,Subjects with PGA=1,"Week 16, LOCF, Tapinarof (Pivotal) group",30.4%
same,Subjects with PGA=0,[1],12.7%
same,Subjects with PGA=1,[1],25.8%
same,Subjects with PGA=1,"Week 16, OC, Tapinarof (Pivotal) group",32.2%
same,Subjects with PGA=0,[2],12.9%
same,Subjects with PGA=1,[2],28.2%
same,PGA 0 - Clear,"Week 16 LOCF, Overall",121 (16.2) n (%)
same,PGA 1 - Almost Clear,"Week 16 LOCF, Overall",215 (28.9) n (%)
same,PGA 2 - Mild,"Week 16 LOCF, Overall",279 (37.4) n (%)
same,PGA 3 - Moderate,"Week 16 LOCF, Overall",119 (16.0) n (%)
same,PGA 4 - Severe,"Week 16 LOCF, Overall",11 (1.5) n (%)
same,PGA Change from Baseline: Improved by 1,"Week 16 LOCF, Overall",219 (29.5) n (%)
same,PGA Change from Baseline: Improved by 2,"Week 16 LOCF, Overall",91 (12.3) n (%)
same,PGA Change from Baseline: Improved by 3,"Week 16 LOCF, Overall",14 (1.9) n (%)
same,PGA Change from Baseline: Improved by 4,"Week 16 LOCF, Overall",2 (0.3) n (%)
same,PGA Change from Baseline: No Change,"Week 16 LOCF, Overall",297 (40.0) n (%)
same,PGA Change from Baseline: Worsened by 1,"Week 16 LOCF, Overall",86 (11.6) n (%)
same,PGA Change from Baseline: Worsened by 2,"Week 16 LOCF, Overall",28 (3.8) n (%)
same,PGA Change from Baseline: Worsened by 3,"Week 16 LOCF, Overall",5 (0.7) n (%)
same,PGA Change from Baseline: Worsened by 4,"Week 16 LOCF, Overall",0 (0.0) n (%)
same,PGA 1 - Almost Clear,[3],150 (30.4) n (%)
same,PGA 2 - Mild,[3],174 (35.3) n (%)
same,PGA 3 - Moderate,[3],74 (15.0) n (%)
same,PGA 4 - Severe,[3],6 (1.2) n (%)
same,PGA Change from Baseline: Improved by 1,[3],122 (24.8) n (%)
same,PGA Change from Baseline: Improved by 2,[3],37 (7.5) n (%)
same,PGA Change from Baseline: Improved by 3,[3],1 (0.2) n (%)
same,PGA Change from Baseline: Improved by 4,[3],1 (0.2) n (%)
same,PGA Change from Baseline: No Change,[3],223 (45.4) n (%)
same,PGA Change from Baseline: Worsened by 1,[3],77 (15.7) n (%)
same,PGA Change from Baseline: Worsened by 2,[3],25 (5.1) n (%)
same,PGA Change from Baseline: Worsened by 3,[3],5 (1.0) n (%)
same,PGA Change from Baseline: Worsened by 4,[3],0 (0.0) n (%)
same,PGA 0 - Clear,[4],32 (12.7) n (%)
same,PGA 1 - Almost Clear,[4],65 (25.8) n (%)
same,PGA 3 - Moderate,[4],45 (17.9) n (%)
same,PGA 4 - Severe,[4],5 (2.0) n (%)
same,PGA Change from Baseline: Improved by 1,[4],97 (38.6) n (%)
same,PGA Change from Baseline: Improved by 2,[4],54 (21.5) n (%)
same,PGA Change from Baseline: Improved by 3,[4],13 (5.2) n (%)
same,PGA Change from Baseline: Improved by 4,[4],1 (0.4) n (%)
same,PGA Change from Baseline: No Change,[4],74 (29.5) n (%)
same,PGA Change from Baseline: Worsened by 1,[4],9 (3.6) n (%)
same,PGA Change from Baseline: Worsened by 2,[4],3 (1.2) n (%)
same,PGA Change from Baseline: Worsened by 3,[4],0 (0.0) n (%)
same,PGA Change from Baseline: Worsened by 4,[4],0 (0.0) n (%)
same,PGA 0 - Clear,"Week 16 OC, Overall",107 (17.0) n (%)
same,PGA 1 - Almost Clear,"Week 16 OC, Overall",194 (30.9) n (%)
same,PGA 2 - Mild,"Week 16 OC, Overall",236 (37.6) n (%)
same,PGA 3 - Moderate,"Week 16 OC, Overall",86 (13.7) n (%)
same,PGA 4 - Severe,"Week 16 OC, Overall",5 (0.8) n (%)
same,PGA Change from Baseline: Improved by 1,"Week 16 OC, Overall",190 (30.3) n (%)
same,PGA Change from Baseline: Improved by 2,"Week 16 OC, Overall",77 (12.3) n (%)
same,PGA Change from Baseline: Improved by 3,"Week 16 OC, Overall",13 (2.1) n (%)
same,PGA Change from Baseline: Improved by 4,"Week 16 OC, Overall",2 (0.3) n (%)
same,PGA Change from Baseline: No Change,"Week 16 OC, Overall",246 (39.2) n (%)
same,PGA Change from Baseline: Worsened by 1,"Week 16 OC, Overall",69 (11.0) n (%)
same,PGA Change from Baseline: Worsened by 2,"Week 16 OC, Overall",25 (4.0) n (%)
same,PGA Change from Baseline: Worsened by 3,"Week 16 OC, Overall",5 (0.8) n (%)
same,PGA Change from Baseline: Worsened by 4,"Week 16 OC, Overall",0 (0.0) n (%)
same,PGA 0 - Clear,[5],80 (19.1) n (%)
same,PGA 1 - Almost Clear,[5],135 (32.2) n (%)
same,PGA 2 - Mild,[5],146 (34.8) n (%)
same,PGA 3 - Moderate,[5],54 (12.9) n (%)
same,PGA 4 - Severe,[5],4 (1.0) n (%)
same,PGA Change from Baseline: Improved by 1,[5],109 (26.1) n (%)
same,PGA Change from Baseline: Improved by 2,[5],29 (6.9) n (%)
same,PGA Change from Baseline: Improved by 3,[5],1 (0.2) n (%)
same,PGA Change from Baseline: Improved by 4,[5],1 (0.2) n (%)
same,PGA Change from Baseline: No Change,[5],187 (44.7) n (%)
same,PGA Change from Baseline: Worsened by 2,[5],23 (5.5) n (%)
same,PGA Change from Baseline: Worsened by 3,[5],5 (1.2) n (%)
same,PGA Change from Baseline: Worsened by 4,[5],0 (0.0) n (%)
same,PGA 0 - Clear,"Week 16 OC, Vehicle (Pivotal)",27 (12.9) n (%)
same,PGA 1 - Almost Clear,"Week 16 OC, Vehicle (Pivotal)",59 (28.2) n (%)
same,PGA 2 - Mild,"Week 16 OC, Vehicle (Pivotal)",90 (43.1) n (%)
same,PGA 3 - Moderate,"Week 16 OC, Vehicle (Pivotal)",32 (15.3) n (%)
same,PGA 4 - Severe,"Week 16 OC, Vehicle (Pivotal)",1 (0.5) n (%)
same,PGA Change from Baseline: Improved by 1,"Week 16 OC, Vehicle (Pivotal)",81 (38.8) n (%)
same,PGA Change from Baseline: Improved by 2,"Week 16 OC, Vehicle (Pivotal)",48 (23.0) n (%)
same,PGA Change from Baseline: Improved by 3,"Week 16 OC, Vehicle (Pivotal)",12 (5.7) n (%)

# Source: patent US20220395472A1 (Dermavant Sciences GmbH, priority 2021, published 2022)
